Data reported in PubChem BioAssay (NCI).
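Five compound concentrations were applied to cells in 96-well plates for 48 hours; endpoints were derived by simple linear interpolation of the resulting dose-response curve. TGI is the concentration that stops growth completely.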

Legend:
Assay in all cases: NCI-60 cell line screen, 48 h
DMS 114 small cell lung = test system: DMS 114 small cell lung
DMS 273 small cell lung = test system: DMS 273 small cell lung
HOP-18 NSCLC = test system: HOP-18 NSCLC
LXFL 529 NSCLC = test system: LXFL 529 NSCLC
M19-MEL melanoma = test system: M19-MEL melanoma
SNB-78 CNS = test system: SNB-78 CNS
XF 498 CNS = test system: XF 498 CNS
BT-549 breast = test system: BT-549 breast
MDA-N = test system: MDA-N

## NC(=O)C(=Cc1ccc(C(O)P(=O)(O)O)cc1)C(N)=O (centres undefined)
DMS 114 small cell lung
  TGI: > 100 µM
DMS 273 small cell lung
  TGI: > 100 µM
HOP-18 NSCLC
  TGI: > 100 µM
LXFL 529 NSCLC
  TGI: > 100 µM
M19-MEL melanoma
  TGI: > 100 µM
SNB-78 CNS
  TGI: > 100 µM
XF 498 CNS
  TGI: > 100 µM

## CC/C(C)=C1\CCC(CN2CCOCC2)C1=O (centres undefined)
DMS 114 small cell lung
  TGI: 18.6 µM
DMS 273 small cell lung
  TGI: 32.4 µM
HOP-18 NSCLC
  TGI: 34.1 µM
LXFL 529 NSCLC
  TGI: 23.7 µM
M19-MEL melanoma
  TGI: 30 µM
SNB-78 CNS
  TGI: 50.5 µM
XF 498 CNS
  TGI: 33.4 µM

## CCNC(=O)CCN(C(=O)O)S(=O)(=O)c1ccc(NC(=O)c2ccccc2)cc1
DMS 114 small cell lung
  TGI: > 100 µM
DMS 273 small cell lung
  TGI: 41.3 µM
HOP-18 NSCLC
  TGI: > 100 µM
LXFL 529 NSCLC
  TGI: > 100 µM
M19-MEL melanoma
  TGI: > 100 µM
SNB-78 CNS
  TGI: > 100 µM
XF 498 CNS
  TGI: > 100 µM

## CCOC(=O)Nc1nc2ccc(Cn3cccc3)cc2[nH]1
BT-549 breast
  TGI: > 100 µM
DMS 114 small cell lung
  TGI: > 100 µM
DMS 273 small cell lung
  TGI: > 100 µM
HOP-18 NSCLC
  TGI: > 100 µM
LXFL 529 NSCLC
  TGI: > 100 µM
M19-MEL melanoma
  TGI: > 100 µM
MDA-N
  TGI: 0.965 µM
SNB-78 CNS
  TGI: > 100 µM
XF 498 CNS
  TGI: > 85 µM

## CCCCCCCCC[C@@H]1CC(=O)OCC2OC(O[C@H](CCCCCCCCC)CC(=O)OCC3OC(O[C@H](CCCCCCCCC)CC(=O)OCC4OC(O1)C(O)C(O)C4O)C(O)C(O)C3O)C(O)C(O)C2O (some centres undefined)
DMS 114 small cell lung
  TGI: 24 µM
DMS 273 small cell lung
  TGI: 21.6 µM
HOP-18 NSCLC
  TGI: 0.0797 µM
LXFL 529 NSCLC
  TGI: 18 µM
M19-MEL melanoma
  TGI: 16.5 µM
SNB-78 CNS
  TGI: 34.6 µM
XF 498 CNS
  TGI: 23.3 µM

## COc1ccccc1N1C(=O)/C(=C/c2ccc(N(CCC#N)CCC#N)cc2C)N=C1c1cc([N+](=O)[O-])ccc1Cl
DMS 114 small cell lung
  TGI: > 100 µM
DMS 273 small cell lung
  TGI: > 100 µM
HOP-18 NSCLC
  TGI: > 100 µM
LXFL 529 NSCLC
  TGI: > 100 µM
M19-MEL melanoma
  TGI: 56.3 µM
SNB-78 CNS
  TGI: > 100 µM
XF 498 CNS
  TGI: > 100 µM
